From patent US12516130B2, “Single-domain antibody for targeting prostate specific membrane antigen (PSMA)” (NATIONAL INSTITUTE FOR BIOTECHNOLOGY IN THE NEGEV LTD., priority 2019, dated 2026)

How the values were obtained:
[1] = tested on: PC3-PIP and PC3-flu cells; test: Confocal imaging of NB7cys, DOX and NB7cysDOX internalization; assay type: cell-based; conditions: 15 min, 1.5 μg/ml DOX or molar equivalent
PC3-PIP cells [2] = test: Cell quantification assay; assay type: cell-based; conditions: 24 h, 1.5 μg/ml DOX or equivalent molar amount
Procedure: PC3-PIP cells (5×10^4) were seeded in 24-well plates. […] After 24 h of treatment, the number of cells in each well was counted using the Countess II automated cell counter (Invitrogen).

PC3-PIP cells [3] = test: Cell viability assay (propidium iodide, FACS); assay type: cell-based; conditions: 24 h, 1.5 μg/ml DOX or equivalent molar amount
Procedure: PC3-PIP cells were grown and treated as described in the cell quantification assay section, above. The cells were harvested, incubated with 0.5 μg propidium iodide (PI; Biolegend), and their fluorescence intensity was measured in a BD C6 flow cytometer.

PC3-PIP cells [4] = test: Mitochondrial potential assay (TMRE); assay type: cell-based; conditions: 24 h, 1.5 μg/ml DOX or equivalent molar amount
Procedure: PC3-PIP cells (2×10^4) were seeded on 96-well plates. […] After 24 h, tetramethylrhodamine ethyl ester (TMRE; Abcam, UK) was added according to the protocol provided by the manufacturer. Fluorescence intensity was measured at an excitation wavelength of 549 nm and an emission wavelength of 575 nm.

PC3-PIP xenografts [5] = test: In vivo tumor growth inhibition; parameters: species or system athymic nude mice; conditions: fewer than in saline group
Procedure: PC3-PIP xenografts were grown in athymic nude mice, as described in the in vivo optical imaging section, above. When the average tumor size reached 200 mm^3, the mice were divided into three groups (controlled for average tumor size), each subjected to a different treatment: 150 μl saline (n=7), 2 mg/kg DOX (n=8), or 1.4 mg/kg (˜40 μg) NB7cysDOX (n=8). The treatment was administered to the tail vein twice a week for three consecutive weeks. At each sample point, the tumor volume was calculated (V=0.5×L×W×H), as previously described (Tomayko and Reynolds, 1989). A mouse was euthanized when tumor volume reached 1,500 mm^3 or when its physical condition deteriorated, according to the guidelines of the Committee for the Ethical Care and Use of Animals in Research at BGU. The estimated tumor volume prior to euthanasia and the rate-based T/C were determined as described previously (Aston et al., 2017).

PC3-PIP xenografts [6] = test: Histology of treated tumors (IF, H&E, TUNEL); conditions: 4 d after treatment termination
Description: Four days following the final dose of each treatment in the in vivo tumor growth inhibition assay, the mice were euthanized, and their xenografts were fixated in 4% formaldehyde and embedded in paraffin. Tumor sections (5 μm thickness) were subjected to hematoxylin and eosin (H&E) staining, TUNEL assay, and immunofluorescence (IF), as previously described (Pittala et al., 2018, Fischer et al., 2008). […] 4′,6-diamidino-2-phenylindole (DAPI) was used for nuclei staining. […] TUNEL, PI, and IF were visualized in a confocal microscope.

Compound: COc1cccc2c1C(=O)c1c(O)c3c(c(O)c1C2=O)C[C@@](O)(C(=O)CO)C[C@@H]3O[C@H]1C[C@H](N)[C@H](O)[C@H](C)O1 [DOX, doxorubicin]
- cellular distribution in PC3-PIP and PC3-flu cells [1]: diffused spontaneously into both PC3-PIP and PC3-flu cells
- number of cells versus untreated cells (PC3-PIP cells [2]): significantly reduced the number of cells in the well
- PI signal (late apoptosis and necrosis) (PC3-PIP cells [3]): considerably increased the signal
- mitochondrial membrane potential (TMRE signal) (PC3-PIP cells [4]): similarly reduced the mitochondrial membrane potential
- mice reaching maximal tumor size, DOX versus NB7cysDOX groups (PC3-PIP xenografts [5]): not significantly different from each other
- H&E staining of tumors (PC3-PIP xenografts [6]): necrotic, fewer, and with large vacancies between cells
- TUNEL assay of tumors (PC3-PIP xenografts [6]): significant apoptosis
